Results taken from paper PMC2114737 (The Journal of Cell Biology, 1987).
One block for each molecule: values may come before it.

How the values were obtained:
[1] = target: T1, N-formyl peptide receptor (Homo sapiens, UniProt P21462); test: Effect of guanine nucleotides on receptor affinity states of fast membranes; type: binding
T1 sequence (P21462 1-350): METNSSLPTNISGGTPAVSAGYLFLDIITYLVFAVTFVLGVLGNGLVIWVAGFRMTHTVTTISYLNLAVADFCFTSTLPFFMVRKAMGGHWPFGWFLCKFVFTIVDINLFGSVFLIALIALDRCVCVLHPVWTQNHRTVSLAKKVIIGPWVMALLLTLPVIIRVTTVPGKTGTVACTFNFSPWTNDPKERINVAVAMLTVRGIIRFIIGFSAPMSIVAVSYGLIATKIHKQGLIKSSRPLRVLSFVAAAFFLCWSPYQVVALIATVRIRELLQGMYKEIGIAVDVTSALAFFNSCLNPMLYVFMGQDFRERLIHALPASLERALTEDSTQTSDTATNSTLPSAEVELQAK

[2] = target: T1, N-formyl peptide receptor; type: binding; settings: Table II; fast microsomes, unstimulated; mean, SD, n = 5

Effect on state C receptor ([1]; fast membranes from Fl-peptide-stimulated cells, GTP-γ-S, listed as GTP-gamma-S): insensitive
Molecule: Nc1nc2c(ncn2[C@@H]2O[C@H](COP(=O)(O)OP(=O)(O)OP(O)(O)=S)[C@@H](O)[C@H]2O)c(=O)[nH]1 [GTP-y-S]

Molecule: Nc1nc2c(ncn2[C@@H]2O[C@H](COP(=O)(O)OP(=O)(O)OP(=O)(O)O)[C@@H](O)[C@H]2O)c(=O)[nH]1 [GTP]
Effect on state B dissociation rate / conversion to state A ([1]; membranes from unstimulated cells, nucleotide 10 μM where stated): converted to the fastest ligand-dissociation state (state A)

Percentage of receptor associated with State B [2]: 47%
Molecule: N-formyl-Nle-Leu-Phe-Nle-Tyr- Lys-fluorescein [Fl-peptide]
